This is an account of results in ChEMBL document CHEMBL1139702, “4'-Alkoxyl substitution enhancing the anti-mitotic effect of 5-(3',4',5'-substituted)anilino-4-hydroxy-8-nitroquinazolines as a novel class of anti-microtubule agents” (Bioorg Med Chem Lett, 2006).

Activity calls are given as the source filed them. The calls are words filed in the database; no cut-off is given here.

For experiment [1], the system named is HGC-27. Nature of the experiment: Antiproliferative activity against HGC27 cells at 50 uM by MTT assay. In kind it is functional, cell-based. The following applies: Homo sapiens.
For experiment [2], the system named is HGC-27. The experiment can be described thus: Antiproliferative activity against HGC27 cells by MTT assay. In kind it is functional, cell-based. The following applies: Homo sapiens. In general terms: Formazan colour is commonly taken as a measure of viable cells.
The subject of experiment [3] is A549. Nature of the experiment: Antiproliferative activity against A549 cells by MTT assay. In kind it is functional, cell-based. Particulars: Homo sapiens.
Experiment [4] concerns HGC-27. The experiment can be described thus: Cell cycle arrest in HGC27 cells by accumulation at G2/M phase at 50 uM after 24 hrs. The following applies: Homo sapiens, HGC-27, 24 h. In kind it is functional.
The subject of experiment [5] is A549. The experiment can be described thus: Cell cycle arrest in A549 cells by accumulation at G2/M phase at 50 uM after 24 hrs. In kind it is functional, cell-based. Particulars: Homo sapiens.

Turning to `COC(=O)/C=C\c1ccc(C(=O)OCCOc2ccc(Nc3ccc([N+](=O)[O-])c4ncnc(O)c34)cc2)cc1`, the outcome in the experiment on HGC-27 [1] was Active.

One may read the IC50 as the concentration at which inhibition is half-maximal. The low end stands for greater potency in that assay, the high end for weaker potency in that assay. In the case of `COc1ccc(Nc2ccc([N+](=O)[O-])c3ncnc(O)c23)cc1Cl`, the IC50 with HGC-27 [2] and in the experiment with A549 [3] was 20 µM in each case.

For orientation: inhibition means how much of the control response was suppressed. On to `COc1cc(Nc2ccc([N+](=O)[O-])c3ncnc(O)c23)cc(OC)c1OC`, for which, in the experiment with HGC-27 [4], the inhibition at 50 µM amounted to 81%. In addition, the outcome in the experiment on HGC-27 [1] and with A549 [5] was Active.

Consider `O=[N+]([O-])c1ccc(Nc2ccc(OCc3ccccc3)c(Cl)c2)c2c(O)ncnc12`, for which the result with HGC-27 [1] was Active.

Turning to `O=[N+]([O-])c1ccc(Nc2ccc(OCCCN3CCOCC3)cc2)c2c(O)ncnc12`, the result in the experiment with HGC-27 [1] was Active.
